Like-named read-outs stand apart in the source and are kept apart here.
Columns and labels:
[1] = target: T1, reverse transcriptase containing the mutation K103N (Human immunodeficiency virus type 1 group M subtype B, UniProt P03366, K702N); experiment: Enzyme test with mutated reverse transcriptase K103N; assay type: biochemical, HIV-1
T1 construct: cloning the gene of the mutated RT in an expression vector for prokariotic cells; made in house
Protocol: (§1) In a final volume of 25 microlitres the following reagents were mixed: 50 mM Tris-HCl pH 7.5, 0.25 mg/ml BSA, 0.5 mM DTT, 20-50 nM HIV-1 (recombinant) reverse transcriptase, nucleotide substrate dTTP marked radioactively (^3H, 4 Ci/mmol) and nucleic acid (poly(rA)/oligo(dT)). The concentrations of dTTP and poly(rA)/oligo(dT) in standard conditions were 5 μM and 0.5 μM, respectively.
(§2) The reaction mixture is incubated 10 min. at 37° C. and 20 μl are removed and deposited on a GF/C Whatman glass fibre filter measuring 25 mm in diameter. The filters are washed 3 times for 5 min. in 5% trichloroacetic acid and once for 5 min. in absolute alcohol. After being dried, the filters are immersed in a scintillating mixture (Packard) and the acid precipitable radioactivity is measured by a scintillation counter for β-emitting isotopes (Beckman).
(§3) In some experiments, the HIV-1 recombinant reverse transcriptase was substituted by a reverse transcriptase containing the mutations K.103N and Y181I. They were produced by cloning the gene of the mutated RT in an expression vector for prokariotic cells according to the method reported in the literature (Maga G, Amacker M, Ruel N, Hubscher U, Spadari S. Resistance to nevirapine of HIV-1 reverse transcriptase mutants: loss of stabilizing interactions and thermodynamic or steric barriers are induced by different single amino acid substitutions. J Mol Biol. Dec. 19, 1997; 274(5):738-47).
(§4) The dose-response curves obtained by means of samples of enzyme activity in the presence of increasing doses of inhibitor were analysed according to the equation E(%)=Emax/([…], where E(%) is the fraction of enzyme activity that is measurable in the presence of each concentration of inhibitor, Emax is the activity in the absence of an inhibitor, I is the concentration of inhibitor. The ID50 was calculated by analysing data using the GraphPad Prism graphic interpolation programme (for Macintosh).

[2] = Cytotoxicity in mock-infected MT-4 cells (MTT); assay type: cell-based; conditions: human
Protocol: (§5) The biological activity of the compounds was evaluated on lymphoid cell lines MT-4 against the wild strain of HIV-1 NL4-3. The MT-4 cells were briefly infected with the appropriate HIV-1 or the infection was simulated to determine the cytoxicity, in the presence of different concentrations of potential inhibitor compounds. 5 days after the infection a colorimetric method was used that involves using a tetrazole salt (MTT) to evaluate the number of surviving cells. The mutant IRLL98 HIV-1 contains the following mutations in the coding sequence for RT:M41L, D67N, Y181C, M184V, R211K, T215Y (resistance to NRTI) and the mutations K101Q, Y181C, G190A (resistance to NNRTI). The H1V-1 mutants containing multi-NNRTI mutations, K103N or Y188L as mutants were supplied by the Medical Research Council Centralised Facility for AIDS Reagents, Herfordshire, UK.

HIV-1 mutant Y181C = experiment: Inhibition of viral proliferation on culture cells (MT-4, MTT), Y181C mutant; assay type: cell-based
Protocol: as §5

[3] = test system: wild strain of HIV-1 NL4-3; experiment: Inhibition of viral proliferation on culture cells (MT-4, MTT), wild strain; assay type: cell-based
Protocol: as §5

HIV-1 mutant K103N = experiment: Inhibition of viral proliferation on culture cells (MT-4, MTT), K103N mutant; assay type: cell-based
Protocol: as §5

[4] = target: T2, reverse transcriptase containing the mutation Y181I (Human immunodeficiency virus type 1 group M subtype B, UniProt P03366, Y780I); experiment: Enzyme test with mutated reverse transcriptase Y181I; assay type: biochemical, HIV-1
T2 construct: cloning the gene of the mutated RT in an expression vector for prokariotic cells; made in house
Protocol: as §1, §2, §3, §4

HIV-1 mutant Y188L = experiment: Inhibition of viral proliferation on culture cells (MT-4, MTT), Y188L mutant; assay type: cell-based
Protocol: as §5

[5] = target: T3, HIV-1 (recombinant) reverse transcriptase (Human immunodeficiency virus type 1 group M subtype B, UniProt P03366); experiment: Enzyme test: reverse transcription reaction in vitro with recombinant RT, wild type; assay type: biochemical
T3 construct: 20-50 nM HIV-1 (recombinant) reverse transcriptase
Protocol: as §1, §2, §4

[6] = Human immunodeficiency virus 1, read-out: Y181C
[7] = Human immunodeficiency virus 1, NL43, read-out: NL4-3 wt
[8] = Human immunodeficiency virus 1, read-out: K100N
[9] = Human immunodeficiency virus 1, read-out: Y188L
[10] = Table 2, enzyme test, read-out: WT
[11] = Table 1, recombinant RT wild type, read-out: ID50 WT

SMILES | IC50 [1] [µM] | CC50 at 5 days [2] [µM] | EC50 (HIV-1 mutant Y181C; [6]) [µM] | EC50 [3, 7] [µM] | EC50 (HIV-1 mutant K103N; [8]) [µM] | IC50 [4] [µM] | EC50 (HIV-1 mutant Y188L; [9]) [µM] | IC50 [5, 10] [µM] | further results
CCc1c(C(C)c2c(F)cccc2F)nc(SCC=Cc2ccc([N+](=O)[O-])cc2)[nH]c1=O (stereo not shown) [Compound 26q] | > 20 | 5.75 | > 5.75 | 0.0004 | > 5.75 | > 20 | 1.94 | 0.009 | activity in cell tests on wild type, in words [3]: nanomolar and subnanomolar activity
Cc1c(C(C)c2c(F)cccc2F)nc(SCC=Cc2ccc([N+](=O)[O-])cc2)[nH]c1=O (stereo not shown) [Compound 26m] | > 20 | > 11.3 | > 11.3 | 0.14 | > 11.3 | > 20 | > 11.3 | 0.283 | 
CCc1c(C(C)c2c(F)cccc2F)nc(SCC=Cc2ccc(OC)cc2)[nH]c1=O (stereo not shown) [Compound 26p] | 0.4 | 5.54 | 0.7 | 0.0002 | 1.02 | > 20 | 0.63 | 0.016 | activity in cell tests on mutant Y181C, in words (HIV-1 mutant Y181C): micromolar and submicromolar activity; activity in cell tests on wild type, in words [3]: nanomolar and subnanomolar activity; activity in cell tests on mutant K103N, in words (HIV-1 mutant K103N): micromolar and submicromolar activity; activity in cell tests on mutant Y188L, in words (HIV-1 mutant Y188L): micromolar and submicromolar activity
CCc1c(Cc2c(Cl)cccc2Cl)nc(SCC=Cc2ccc(C#N)cc2)[nH]c1=O [Compound 26c] |  | > 54.8 |  | 1.73 | > 54.8 |  |  | 0.188 | Y181C, % at given concentration (HIV-1 mutant Y181C; Table 2, at 54.82): 41% at
Cc1c(Cc2c(F)cccc2F)nc(SCC#Cc2ccc([N+](=O)[O-])cc2)[nH]c1=O [Compound 27a, 6-(2,6-Difluorobenzyl)-2-(3-(4-nitrophenyl)-propynylsulfanyl)-5-methylpyrimidine-4(3H)-one] |  | > 58.6 | > 58.6 |  |  |  | > 58.6 |  | EC50 ([3]; Human immunodeficiency virus 1, NL43, read-out: NLA-3wt): 40.1 µM; EC50 (HIV-1 mutant K103N; Human immunodeficiency virus 1, read-out: K103N): > 58.6 µM; IC50 ([5]; Table 3, enzyme test, read-out: WT): 0.416 µM
C=Cc1nc(SC)nc(N(C)C)c1I [Compound 6a] |  |  |  |  |  |  |  |  | IC50 [5, 11]: > 400 µM
COc1ccc(/C=C/CSc2nc(Cc3c(Cl)cccc3Cl)c(C)c(=O)[nH]2)cc1 [Compound 26a] | 9 | 0.96 | > 0.96 | 0.015 | > 0.96 | > 20 | > 0.96 | 0.007 | activity in cell tests on mutant Y181C, in words (HIV-1 mutant Y181C): micromolar and submicromolar activity; activity in cell tests on wild type, in words [3]: nanomolar and subnanomolar activity; activity in cell tests on mutant K103N, in words (HIV-1 mutant K103N): micromolar and submicromolar activity; activity in cell tests on mutant Y188L, in words (HIV-1 mutant Y188L): micromolar and submicromolar activity
Cc1c(C(C)c2c(Cl)cccc2Cl)nc(SCC=Cc2ccc([N+](=O)[O-])cc2)[nH]c1=O (stereo not shown) [Compound 26h] | > 20 |  |  |  |  | > 20 |  | 0.102 | 
Cc1c(Cc2c(F)cccc2F)nc(SCC=Cc2ccc([N+](=O)[O-])cc2)[nH]c1=O [Compound 26i] | > 20 | 11.7 | > 11.7 | 0.26 | > 11.7 | > 20 | > 11.7 | 11.9 | 
COc1ccc(C#CCSc2nc(C(C)c3c(Cl)cccc3Cl)c(C)c(=O)[nH]2)cc1 (racemic) [Compound 27b] |  |  |  |  |  |  |  |  | EC50 (HIV-1 mutant Y181C; Table 3, cell test, read-out: Y181C): 33.5 µM; EC50 ([3]; Table 3, cell test, read-out: NLA-3wt): 0.5 µM; EC50 (HIV-1 mutant K103N; Table 3, cell test, read-out: K103N): > 54.5 µM; EC50 (HIV-1 mutant Y188L; Table 3, cell test, read-out: Y188L): 24.8 µM
CCc1c(C(C)c2c(F)cccc2F)nc(SCC=Cc2ccc(C#N)cc2)[nH]c1=O (stereo not shown) [Compound 26r] |  | 27.2 | > 27.2 | 0.59 | > 27.2 |  | > 27.2 | 0.048 | 
Cc1c(Cc2c(Cl)cccc2Cl)nc(SCC=Cc2ccc([N+](=O)[O-])cc2)[nH]c1=O [Compound 26b] | > 20 | > 10.8 | > 10.8 | > 10.8 | > 10.8 | > 20 | > 10.8 | 3.81 | 
CCc1c(Cc2c(Cl)cccc2Cl)nc(SCC=Cc2ccc([N+](=O)[O-])cc2)[nH]c1=O [Compound 26f] | > 20 |  |  |  |  | > 20 |  | 2.5 | 
COc1ccc(C=CCSc2nc(C(C)c3c(F)cccc3F)c(C)c(=O)[nH]2)cc1 (stereo not shown) [Compound 26n] | 3.7 | > 11.7 | 0.13 | 0.0002 | 0.26 | > 20 | 0.07 | 0.292 | activity in cell tests on mutant Y181C, in words (HIV-1 mutant Y181C): micromolar and submicromolar activity; activity in cell tests on wild type, in words [3]: nanomolar and subnanomolar activity; activity in cell tests on mutant K103N, in words (HIV-1 mutant K103N): micromolar and submicromolar activity; activity in cell tests on mutant Y188L, in words (HIV-1 mutant Y188L): micromolar and submicromolar activity
Cc1c(C(C)c2c(F)cccc2F)nc(SCC=Cc2ccc(C#N)cc2)[nH]c1=O (stereo not shown) [Compound 26o] |  | > 59.1 | > 59.1 | 0.14 | > 59.1 |  | > 59.1 | 0.161 | 
Cc1c(Cc2c(Cl)cccc2Cl)nc(SCC=Cc2ccc(N(C)C)cc2)[nH]c1=O [Compound 26d] |  | > 54.4 | > 54.4 | > 54.4 | > 54.4 |  | > 54.4 | 0.788 | 
C=Cc1cc(N(CC)CC)nc(S(C)(=O)=O)n1 [MB3B, reference compound] | > 400 |  |  |  |  | > 400 |  |  | IC50 [5, 11]: 21.3 µM
